Measured values taken from patent publication US8710264B2, “Antitumoral compounds” (priority 2007, dated 2014).
Values after ≈ are worked out from the molar mass of the structure shown. Like-named read-outs stand apart in the source and are kept apart here.

What was measured:
[1] = system: breast cancer carcinoma; settings: cited from earlier work
[2] = system: A549; assay: Cytotoxicity assay, SRB colorimetric assay; type: cell-based; settings: Homo sapiens; for GI50: concentration that produces 50% growth inhibition; for LC50 (50% net cell killing): read-out: LC50; for IC (TGI): total growth inhibition (cytostatic effect)
Text: (§1) The aim of this assay is to evaluate the in vitro cytostatic (ability to delay or arrest tumor cell growth) or cytotoxic (ability to kill tumor cells) activity of the samples being tested.
(§2) Evaluation of Cytotoxic Activity Using the SBR Colorimetric Assay
(§3) A colorimetric type of assay, using sulforhodamine B (SRB) reaction has been adapted for a quantitative measurement of cell growth and viability (following the technique described by Skehan P et al. J. Natl. Cancer Inst. 1990, 82, 1107-1112).
(§4) This form of assay employs SBS-standard 96-well cell culture microplates (Faircloth et al. Methods in Cell Science, 1988, 11(4), 201-205; Mosmann et al, Journal of Immunological. Methods, 1983, 65(1-2), 55-63). All the cell lines used in this study, derived from different types of human cancer, were obtained from the American Type Culture Collection (ATCC).
(§5) Cells were maintained in Dulbecco's Modified Eagle Medium (DMEM) supplemented with 10% Fetal Bovine Serum (FBS), 2 mM L-glutamine, 100 U/mL penicillin and 100 U/mL streptomycin at 37° C., 5% CO2 and 98% humidity. For the experiments, cells were harvested from subconfluent cultures using trypsinization and resuspended in fresh medium before counting and plating.
(§6) Cells were seeded in 96 well microtiter plates at 5×10^3 cells per well in aliquots of 150 μL, and allowed to attach to the plate surface for 18 hours in drug free medium. One control (untreated) plate of each cell line was fixed (as described below) and used for time zero reference value. Afterwards, test samples were added to the cultures in ten serial dilutions, in aliquots of 50 μL, ranging from 10 to 0.00262 μg/mL. After 48 hours exposure, the antitumor effect was estimated by the SRB method: Briefly, cells were washed twice with PBS, fixed for 15 min in 1% glutaraldehyde solution, rinsed twice in PBS, and stained in 0.4% SRB solution for 30 min at room temperature. Cells were then rinsed several times with 1% acetic acid solution and air-dried. SRB was then extracted in 10 mM trizma base solution and the absorbance measured in an automated spectrophotometric plate reader at 490 nm. Cell survival was expressed as percentage of control cell growth. The final effect of the sample being tested was estimated by applying the NCI algorithm (Boyd M R and Paull K D. Drug Dev. Res. 1995, 34, 91-104).
(§7) Using the mean±SD of triplicate cultures, a dose-response curve was automatically generated using nonlinear regression analysis. Three reference parameters were calculated (NCI algorithm) by automatic interpolation: GI50=concentration that produces 50% growth inhibition; TGI=total growth inhibition (cytostatic effect) and LC50=concentration that produces 50% net cell killing (cytotoxic effect).

[3] = system: HT29; assay: Cytotoxicity assay, SRB colorimetric assay; type: cell-based; settings: Homo sapiens; for GI50: concentration that produces 50% growth inhibition; for IC (TGI): total growth inhibition (cytostatic effect)
Text: as §1, §2, §3, §4, §5, §6, §7

[4] = system: MDA-MB-231; assay: Cytotoxicity assay, SRB colorimetric assay; type: cell-based; settings: Homo sapiens; for GI50: concentration that produces 50% growth inhibition; for IC (TGI): total growth inhibition (cytostatic effect)
Text: as §1, §2, §3, §4, §5, §6, §7

[5] = system: Saccharomyces cerevisiae; settings: fungus Saccharomyces cerevisiae; cited from earlier work
[6] = system: L929 mouse fibroblast cell culture; settings: toxicity toward L929 mouse fibroblast cell culture; cited from earlier work
[7] = A549, 48 hours exposure, concentration that produces 50% net cell killing (cytotoxic effect)
[8] = HT-29, HT29, 48 hours exposure, concentration that produces 50% net cell killing (cytotoxic effect), read-out: LC50 (the source's name)
[9] = MDA-MB-231, 48 hours exposure, concentration that produces 50% net cell killing (cytotoxic effect), read-out: LC50 (the source's name)
[10] = MDA-MB-231, 48 h, read-out: LC50

Compound | IC50 [1] | GI50 ([2]; A549, 48 hours exposure) | LC50 (50% net cell killing) [2, 7] | IC (TGI) ([2]; A549, 48 hours exposure) | GI50 ([3]; HT-29, HT29, 48 hours exposure) | CC50 [3, 8] | IC (TGI) ([3]; HT-29, HT29, 48 hours exposure) | GI50 ([4]; MDA-MB-231, 48 hours exposure) | CC50 [4, 9] | IC (TGI) ([4]; MDA-MB-231, 48 hours exposure) | LC50 (50% net cell killing) ([2]; A549, 48 h) | CC50 ([3]; HT-29, 48 h, read-out: LC50) | CC50 [4, 10] | MIC [5] | IC50 [6]
C=C/C=C\[C@H](C)[C@H](OC(N)=O)[C@@H](C)[C@H](O)[C@@H](C)C/C(C)=C\[C@H](C)[C@@H](O)[C@@H](C)/C=C\[C@@H](O)C[C@@H]1OC(=O)[C@H](C)[C@@H](O)[C@H]1C (single isomer, unassigned) [(+)-discodermolide] | 0.0024 µM |  |  |  |  |  |  |  |  |  |  |  |  |  | 
COc1cc(/C=C(C)/C=C\C=C/C(=O)N[C@H](C(=O)N/C=C\C[C@H](C/C=C(\C)Cl)O[Si](C)(C)C(C)(C)C)C(C)(C)C)ccc1O[Si](C)(C)C(C)(C)C [Compound 30] |  | 0.671 µM | 0.908 µM | 0.764 µM | 0.777 µM | 0.869 µM | 0.816 µM | 0.764 µM | 1.26 µM | 0.974 µM |  |  |  |  | 
C/C(Cl)=C\C[C@@H](C/C=C\NC(=O)[C@@H](NC(=O)\C=C/C=C\C(C)=C\Cc1ccccc1)C(C)(C)C)O[Si](C)(C)C(C)(C)C [Compound 32] |  | 0.49 µM | 1.06 µM | 0.686 µM | 0.49 µM | 0.849 µM | 0.621 µM | 0.833 µM | 1.5 µM | 1.11 µM |  |  |  |  | 
C/C(Cl)=C\C[C@H](O)C/C=C\NC(=O)[C@@H](NC(=O)\C=C/C=C\C(C)=C\Cc1ccccc1)C(C)(C)C [Compound 33] |  | 1.58 µM |  | 3.41 µM | 1.1 µM |  | 1.82 µM | 3.01 µM |  | 4.81 µM | 7.41 µM | 3.81 µM | 8.01 µM |  | 
C/C(Cl)=C\C[C@@H](C/C=C\NC(=O)[C@@H](NC(=O)\C=C/C=C\C(C)=C\Cc1ccccc1)C(C)(C)C)OC(N)=O [Compound 34] |  | 0.701 µM |  | 2.77 µM | 0.443 µM |  | 0.572 µM | 1.03 µM |  | 4.43 µM | > 18.4 µM | 0.904 µM | > 18.4 µM |  | 
C=CCCOC(=O)[C@@H](NC(=O)\C=C/C=C\C(C)=C\c1ccc(O)c(OC)c1)C(C)(C)C [Compound 36] |  | 3.27 µM | > 23.4 µM | > 23.4 µM | 1.96 µM | > 23.4 µM | 7.95 µM | 1.15 µM | 19.2 µM | 2.57 µM |  |  |  |  | 
C/C(Cl)=C\C[C@@H](C/C=C\NC(=O)[C@@H](NC(=O)\C=C/C=C\C(C)=C\[C@H](C)c1ccccc1)C(C)(C)C)O[Si](C)(C)C(C)(C)C [Compound 37] |  | 2.87 µM | 10.8 µM | 5.9 µM | 3.67 µM | 5.9 µM | 4.46 µM | 5.26 µM | 9.4 µM | 7.01 µM |  |  |  |  | 
C/C(Cl)=C\C[C@H](O)C/C=C\NC(=O)[C@@H](NC(=O)\C=C/C=C\C(C)=C\[C@H](C)c1ccccc1)C(C)(C)C [Compound 38] |  | 1.81 µM |  | 4.87 µM | 1.09 µM |  | 1.52 µM | 2.14 µM |  | 4.48 µM | > 19.5 µM | 4.68 µM | > 19.5 µM |  | 
C/C(Cl)=C\C[C@@H](C/C=C\NC(=O)[C@@H](NC(=O)\C=C/C=C\C(C)=C\[C@H](C)c1ccccc1)C(C)(C)C)OC(N)=O [Compound 39] |  | 0.0557 µM |  | > 18 µM | 0.036 µM |  | 0.0593 µM | 0.0917 µM |  | 0.27 µM | > 18 µM | 0.36 µM | > 18 µM |  | 
COC(=O)CNC(=O)CCC/C=C\NC(=O)/C=C(C)/C=C/[C@H](C)[C@H](OC)[C@H](C)[C@H](/C=C/c1ccccc1)OC [crocacin D] |  |  |  |  |  |  |  |  |  |  |  |  |  | 0.0014 µg/mL (≈ 0.00259 µM) | 0.06 µg/mL (≈ 0.111 µM)
CC(=O)O[C@H]1C(=O)[C@@]2(C)[C@H]([C@H](OC(=O)c3ccccc3)[C@]3(O)C[C@H](OC(=O)[C@H](O)[C@@H](NC(=O)c4ccccc4)c4ccccc4)C(C)=C1C3(C)C)[C@]1(OC(C)=O)CO[C@@H]1C[C@@H]2O [paclitaxel] | 0.0021 µM |  |  |  |  |  |  |  |  |  |  |  |  |  | 
